Results: US8530663B2, “1-(2-phenoxymethylheteroaryl)piperidine and piperazine compounds” (Theravance, Inc., priority 2010, dated 2013)
Marks after values point to notes of the source that are not given here.

Tests used:
hSERT [1] = biological target: T1, hSERT (Homo sapiens, UniProt P31645); assay: hSERT neurotransmitter uptake assay (3H-5-HT); format: cell-based; settings: serotonin reuptake inhibition, 3H-5-HT uptake, HEK-293 hSERT cells (no asterisk); for IC50: read-out: SERT pIC50 (converted)
T1 construct: expressed in transfected cells; host or cells: HEK-293
Experimental: (§1) Neurotransmitter uptake assays were used to measure inhibition of ^3H-serotonin (^3H-5-HT), ^3H-norepinephrine (^3H-NE), and ^3H-dopamine (^3H-DA) uptake into cells expressing the respective transporter (hSERT, hNET or hDAT) in order to determine the pIC50 values of test compounds at the transporters.
(§2) HEK-293 derived cell lines stably-transfected with hSERT, hNET, or hDAT, respectively, were grown in DMEM medium supplemented with 10% dialyzed FBS (for hSERT) or FBS (for hNET and hDAT), 100 μg/ml penicillin, 100 μg/ml streptomycin, 2 mM L-glutamine and 250 μg/ml of the aminoglycoside antibiotic G418 (for hSERT and hNET) or 800 ug/ml (for hDAT), in a 5% CO2 humidified incubator at 37° C. When cultures reached 80% confluence, the cells were washed thoroughly in PBS (without Ca^2+ and Mg^2+) and lifted with 5 mM EDTA in PBS. Cells were harvested by centrifugation at 1100 rpm for 5 minutes, washed once by resuspension in PBS, then centrifuged. The supernatant was discarded and the cell pellet resuspended, by gentle trituration, in room temperature Krebs-Ringer bicarbonate buffer containing HEPES (10 mM), CaCl2 (2.2 mM), ascorbic acid (200 μM) and pargyline (200 μM), pH 7.4. The final concentration of cells in the cell suspension was 7.5×10^4 cells/ml, 1.25×10^5 cells/ml, and 5.0×10^4 cells/ml for SERT, NET, and DAT cell lines, respectively.
(§3) Stock solutions (10 mM in DMSO) of test compound were prepared and serial dilutions prepared using 50 mM Tris-HCl, 120 mM NaCl, 5 mM KCl, pH 7.4, 0.1% BSA, 400 μM ascorbic acid. Test compounds were incubated for 30 minutes at 37° C. with the respective cells, prior to addition of radiolabeled neurotransmitter, ^3H-5-HT (20 nM final concentration), ^3H-NE (50 nM final concentration), or ^3H-DA (100 nM final concentration).
(§4) Following a 10 minute incubation, at 37° C., with radioligand, the cells were harvested by rapid filtration over a 96-well UniFilter GF/B plate, pretreated with 1% BSA, and washed 6 times with 650 μl wash buffer (ice cold PBS). Plates were dried overnight at 37° C., ˜45 μl of MicroScint™-20 (Perkin Elmer) added and incorporated radioactivity quantitated via liquid scintillation spectroscopy. Inhibition curves were analyzed using GraphPad Prism Software package (GraphPad Software, Inc., San Diego, Calif.). IC50 values were generated from concentration response curves using the Sigmoidal Dose Response (variable slope) algorithm in Prism GraphPad.

hNET [2] = biological target: T2, hNET (Homo sapiens, UniProt P23975); assay: hNET membrane radioligand binding assay (3H-nisoxetine); settings: hNET membranes, 1.0 nM 3H-nisoxetine; for Ki: read-out: NET pKi (converted)
T2 construct: expressed in transfected cells; host or cells: HEK-293
Experimental: (§5) Membrane radioligand binding assays were used to measure inhibition of labeled ligand (^3H-citalopram or ^3H-nisoxetine or ^3H-WIN35428) binding to membranes prepared from cells expressing the respective human recombinant transporter (hSERT or hNET or hDAT) in order to determine the pKi values of test compounds at the transporters.
(§6) Recombinant human embryonic kidney (HEK-293) derived cell lines stably transfected with hSERT or hNET, respectively, were grown in DMEM medium supplemented with 10% dialyzed FBS (for hSERT) or FBS (for hNET), 100 μg/ml penicillin, 100 μg/ml streptomycin, 2 mM L-glutamine and 250 μg/ml of the aminoglycoside antibiotic G418, in a 5% CO2 humidified incubator at 37° C. When cultures reached 80% confluence, the cells were washed thoroughly in PBS (without Ca^2+ and Mg^2+) and lifted with 5 mM EDTA in PBS. Cells were pelleted by centrifugation, resuspended in lysis buffer (10 mM Tris-HCl, pH7.5 containing 1 mM EDTA), homogenized, pelleted by centrifugation, then resuspended in 50 mM Tris-HCl, pH 7.5 and 10% sucrose at 4° C. Protein concentration of the membrane suspension was determined using a Bio-Rad Bradford Protein Assay kit. Membranes were snap frozen and stored at −80° C. Chinese hamster ovary membranes expressing hDAT (CHO-DAT) were purchased from PerkinElmer and stored at −80° C.
(§7) Binding assays were performed in a 96-well assay plate in a total volume of 200 μL assay buffer (50 mM Tris-HCl, 120 mM NaCl, 5 mM KCl, pH 7.4) with 0.5, 1, and 3 μg membrane protein, for SERT, NET and DAT, respectively.
(§8) Stock solutions (10 mM in DMSO) of test compound were prepared and serial dilutions made using Dilution Buffer (50 mM Tris-HCl, 120 mM NaCl, 5 mM KCl, pH 7.4, 0.1% BSA, 400 μM ascorbic acid).
(§9) Following a 60 minute incubation at 22° C. (or a period sufficient to reach equilibrium), the membranes were harvested by rapid filtration over a 96-well UniFilter GF/B plate, pretreated with 0.3% polyethyleneimine, and washed 6 times with 300 μl wash buffer (50 mM Tris-HCl, 0.9% NaCl, pH 7.5 at 4° C.). Plates were dried overnight at room temperature, ˜45 μl of MicroScint™-20 (Perkin Elmer) added and bound radioactivity quantitated via liquid scintillation spectroscopy. Inhibition curves and saturation isotherms were analyzed using GraphPad Prism Software package (GraphPad Software, Inc., San Diego, Calif.). IC50 values were generated from concentration response curves using the Sigmoidal Dose Response (variable slope) algorithm in Prism GraphPad. Kd and Bmax values for the radioligand were generated from saturation isotherms using the Saturation Binding Global Fit algorithm in Prism GraphPad. pKi (negative decadic logarithm of Ki) values for test compounds were calculated from the best-fit IC50 values, and the Kd value of the radioligand, using the Cheng-Prusoff equation (Cheng & Prusoff (1973) Biochem. Pharmacol. 22(23):3099-3108): Ki=IC50/(1+[L]/Kd), where [L]=concentration radioligand.

hSERT [3] = biological target: T1, hSERT; assay: hSERT membrane radioligand binding assay (3H-citalopram); settings: hSERT membranes, 1.0 nM 3H-citalopram; for Ki: read-out: SERT pKi (converted)
Experimental: as §5, §6, §7, §8, §9

hNET [4] = biological target: T2, hNET; assay: hNET neurotransmitter uptake assay (3H-NE); format: cell-based; settings: norepinephrine reuptake inhibition, 3H-NE uptake, HEK-293 hNET cells (no asterisk); for IC50: read-out: NET pIC50 (converted)
Experimental: as §1, §2, §3, §4

hSERT [5] = biological target: T1, hSERT; assay: fluorescence-based serotonin reuptake assay (Tsuruda et al. 2010; data with asterisk); format: cell-based; settings: serotonin reuptake inhibition, fluorescence-based assay (data indicated by an asterisk)
hNET [6] = biological target: T2, hNET; assay: fluorescence-based norepinephrine reuptake assay (Tsuruda et al. 2010; data with asterisk); format: cell-based; settings: norepinephrine reuptake inhibition, fluorescence-based assay (data indicated by an asterisk)

T1 sequence (P31645 whole entry): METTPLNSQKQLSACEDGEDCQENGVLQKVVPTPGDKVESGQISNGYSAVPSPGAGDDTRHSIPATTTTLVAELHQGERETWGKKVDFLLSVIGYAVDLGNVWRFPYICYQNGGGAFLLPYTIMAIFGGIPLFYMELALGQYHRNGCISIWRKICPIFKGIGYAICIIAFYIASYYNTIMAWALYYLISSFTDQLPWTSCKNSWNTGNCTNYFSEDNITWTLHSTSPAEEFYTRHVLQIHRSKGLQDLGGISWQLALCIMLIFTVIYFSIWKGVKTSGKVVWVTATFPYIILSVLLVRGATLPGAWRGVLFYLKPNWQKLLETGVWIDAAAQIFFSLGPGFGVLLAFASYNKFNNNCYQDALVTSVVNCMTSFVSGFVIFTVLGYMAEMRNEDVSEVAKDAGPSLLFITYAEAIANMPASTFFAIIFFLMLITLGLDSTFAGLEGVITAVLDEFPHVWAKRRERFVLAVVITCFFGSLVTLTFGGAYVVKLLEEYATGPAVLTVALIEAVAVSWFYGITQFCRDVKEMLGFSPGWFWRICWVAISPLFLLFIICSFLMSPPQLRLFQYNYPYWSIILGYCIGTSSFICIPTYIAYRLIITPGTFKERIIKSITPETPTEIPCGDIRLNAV
T2 sequence (P23975 whole entry): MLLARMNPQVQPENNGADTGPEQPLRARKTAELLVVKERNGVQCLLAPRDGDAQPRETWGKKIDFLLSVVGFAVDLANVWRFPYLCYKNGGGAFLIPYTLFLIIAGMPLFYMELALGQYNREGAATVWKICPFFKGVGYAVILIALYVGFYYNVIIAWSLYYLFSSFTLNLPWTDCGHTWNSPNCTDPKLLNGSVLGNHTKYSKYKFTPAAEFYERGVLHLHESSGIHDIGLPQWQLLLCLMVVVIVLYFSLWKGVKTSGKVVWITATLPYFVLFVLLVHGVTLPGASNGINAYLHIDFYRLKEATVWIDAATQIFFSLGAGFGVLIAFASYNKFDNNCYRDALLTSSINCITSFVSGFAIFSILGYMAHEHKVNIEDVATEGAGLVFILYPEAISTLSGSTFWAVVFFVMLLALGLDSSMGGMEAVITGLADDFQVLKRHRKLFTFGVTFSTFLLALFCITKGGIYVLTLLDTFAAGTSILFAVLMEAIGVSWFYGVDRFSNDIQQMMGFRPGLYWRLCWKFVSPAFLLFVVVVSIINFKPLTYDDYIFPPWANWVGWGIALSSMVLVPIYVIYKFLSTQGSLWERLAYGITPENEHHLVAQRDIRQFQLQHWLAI

Structure (SMILES) | IC50 (hSERT [1]) | Ki (hNET [2]) | Ki (hSERT [3]) | IC50 (hNET [4]) | NET pKi (hNET [2]) | SERT pKi (hSERT [3]) | also measured
Fc1cc(F)c(OCc2ccncc2C2CCNCC2)c(F)c1 [Example 9, 4-(2,4,6-Trifluorophenoxymethyl)-1′,2′,3′,4′,5′,6′-hexahydro[3,4]bipyridinyl] | ≤ 100 nM | ≤ 100 nM | ≤ 100 nM | ≤ 100 nM |  |  | 
Fc1cccc(Cl)c1OCc1ccncc1C1CCNCC1 [Example 10-4] |  |  |  |  | ≧7.0 | ≧7.0 | SERT pIC50 (hSERT [1]): ≧7.0; NET pIC50 (hNET [4]): ≧7.0
Fc1cc(F)c(OCc2cccnc2C2CCNCC2)c(F)c1 [Example 13, 3-(2,4,6-Trifluorophenoxymethyl)-1′,2′,3′,4′,5′,6′-hexahydro[2,4]bipyridinyl] | ≤ 100 nM | ≤ 100 nM | ≤ 100 nM | ≤ 100 nM |  |  | 
Clc1cccc(OCc2sccc2C2CCNCC2)c1 [Example 24, 4-[2-(3-Chlorophenoxymethyl)thiophen-3-yl]piperidine] |  | ≤ 100 nM | ≤ 100 nM |  |  |  | IC50 (hSERT [5]; read-out: SERT pIC50 (converted)): ≤ 100 nM; IC50 (hNET [6]; read-out: NET pIC50 (converted)): ≤ 100 nM
Fc1cccc(F)c1OCc1cscc1C1CCNCC1 [Example 27, 4-[4-(2,6-Difluorophenoxymethyl)thiophen-3-yl]piperidine] | ≤ 100 nM | ≤ 100 nM | ≤ 100 nM | ≤ 100 nM |  |  | 
Fc1cc(F)c(OCc2cscc2C2CCNCC2)c(F)c1 [Example 28-3] |  |  |  |  | ≧7.0 | ≧7.0 | SERT pIC50 (hSERT [1]): ≧7.0; NET pIC50 (hNET [4]): ≧7.0
Clc1cccc(OCc2ccsc2C2CCNCC2)c1 [Example 31-2] |  |  |  |  | ≧7.0 | ≧7.0 | SERT pIC50 (hSERT [5]): ≧7.0*; NET pIC50 (hNET [6]): ≧7.0*
Fc1cc(F)c(OCc2ccsc2C2CCNCC2)c(F)c1 [Example 31-3] |  |  |  |  | ≧7.0 | ≧7.0 | SERT pIC50 (hSERT [5]): ≧7.0*; NET pIC50 (hNET [6]): ≧7.0*
